Biological target: Drp1 (Homo sapiens (Human), UniProt O00429)
Assay: Drp1 Activity Screen: colorimetric (malachite green) GTPase assay
Type: biochemical
Conditions: 1 mM GTP, 20 min at 37° C.; for IC50: GTPase activity, 0.6 μM Drp1 preincubated with 0.1 mg/mL liposomes; for max % inh: max % inhibition of Drp1 GTPase activity, 0.6 μM Drp1, 0.1 mg/mL liposomes
Procedure: The GTPase activity of Drp1 was assayed using a colorimetric assay similar to as described previously by Leonard M. et al. “Robust colorimetric assays for dynamin's basal and stimulated GTPase activities.” Methods Enzymol. […] Briefly, for GTPase assays of purified Drp1 inhibitor samples, 0.6 μM Drp1 preincubated with 0.1 mg/mL liposomes (consisting of 80% soybean lipids/20% cardiolipin) and inhibitor was added to 1 mM GTP in a microtiter plate for 20 min at 37° C. in 4 mM MgCl2, 10 mM Hepes (pH 7.0), 100 mM KCl, 1 mM DTT. Reactions were stopped by diluting with 0.5 mM EDTA. Samples were then incubated with malachite green reagent (1 mM malachite green and 50 mM ammonium molybdate in 1 N HCl), and the absorbance at 650 nm was measured. The reaction rates, IC50 values, and max % inhibition were determined using Excel/GraphPad Prism software.

Sequence of Drp1 (O00429 whole entry): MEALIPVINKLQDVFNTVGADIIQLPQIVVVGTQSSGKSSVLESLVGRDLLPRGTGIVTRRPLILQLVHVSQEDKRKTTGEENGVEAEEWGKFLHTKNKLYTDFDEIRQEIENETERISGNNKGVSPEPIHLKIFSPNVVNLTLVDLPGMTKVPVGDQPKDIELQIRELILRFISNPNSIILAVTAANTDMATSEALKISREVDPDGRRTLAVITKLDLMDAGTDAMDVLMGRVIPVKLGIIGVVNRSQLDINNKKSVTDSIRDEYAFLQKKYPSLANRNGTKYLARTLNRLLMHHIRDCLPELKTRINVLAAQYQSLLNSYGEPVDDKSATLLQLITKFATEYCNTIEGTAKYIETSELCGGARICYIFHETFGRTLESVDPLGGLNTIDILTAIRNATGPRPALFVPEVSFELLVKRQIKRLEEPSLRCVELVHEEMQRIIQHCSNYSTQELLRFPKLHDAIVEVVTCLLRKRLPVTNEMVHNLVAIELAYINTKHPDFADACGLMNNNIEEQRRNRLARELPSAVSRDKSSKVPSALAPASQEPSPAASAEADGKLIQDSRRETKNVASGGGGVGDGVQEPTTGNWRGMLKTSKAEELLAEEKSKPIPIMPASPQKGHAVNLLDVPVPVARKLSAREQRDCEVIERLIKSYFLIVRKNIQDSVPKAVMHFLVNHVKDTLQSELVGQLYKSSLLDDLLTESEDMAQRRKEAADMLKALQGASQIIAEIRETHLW

Row | Compound | IC50 | max % inh
1 | O=C(O)c1ccc(NC(=O)c2ccccc2Cc2csc(N3CCCCC3)n2)cc1 [Compound A-11, 4-(2-((2-(piperidin-1-yl)thiazol-4-yl)methyl)benzamido)benzoic Acid] | > 100 µM | –
2 | Cc1cc(C(=O)Nc2ccc(-c3ccoc3)cc2)n(Cc2csc(N3CCCCC3)n2)c1 [Compound A-38, N-(4-(furan-3-yl)phenyl)-4-methyl-1-((2-(piperidin-1-yl)thiazol-4-yl)methyl)-1H-pyrrole-2-carboxamide] | 1.2 µM | –
3 | CNC(=O)c1ccc(NC(=O)c2cc(C)cn2Cc2csc(N3CCCCC3)n2)cc1 [Compound A-22, 4-methyl-N-(4-(methylcarbamoyl)phenyl)-1-((2-(piperidin-1-yl)thiazol-4-yl)methyl)-1H-pyrrole-2-carboxamide] | 1.8 µM | –
4 | Cc1cc(C(=O)Nc2ccc(C(=O)O)cc2)n(Cc2csc(N3CCOCC3)n2)c1 [Compound A-12, 4-(4-methyl-1-((2-morpholinothiazol-4-yl)methyl)-1H-pyrrole-2-carboxamido)benzoic Acid] | 25 µM | –
5 | Cc1cc(C(=O)Nc2ccc(-c3ccc(C(=O)O)cc3)cc2)n(Cc2csc(N3CCCCC3)n2)c1 [Compound A-71, 4′-(4-methyl-1-((2-(piperidin-1-yl)thiazol-4-yl)methyl)-1H-pyrrole-2-carboxamido)-[1,1′-biphenyl]-4-carboxylic Acid] | 0.72 µM | 83%
6 | Cc1cc(C(=O)Nc2ccc(S(N)(=O)=O)cc2)n(Cc2csc(N3CCCCC3)n2)c1 [Compound A-8, 4-methyl-1-((2-(piperidin-1-yl)thiazol-4-yl)methyl)-N-(4-sulfamoylphenyl)-1H-pyrrole-2-carboxamide] | 2.5 µM | –
7 | Cc1cc(C(=O)Nc2ccccc2)n(Cc2csc(N3CCCCC3)n2)c1 [Compound A-15, 4-methyl-N-phenyl-1-((2-(piperidin-1-yl)thiazol-4-yl)methyl)-1H-pyrrole-2-carboxamide] | 2.2 µM | 68%
8 | O=C(Nc1ccc(CO)cc1)c1cc(Br)cn1Cc1csc(N2CCCCC2)n1 [Compound A-63, 4-bromo-N-(4-(hydroxymethyl)phenyl)-1-((2-(piperidin-1-yl)thiazol-4-yl)methyl)-1H-pyrrole-2-carboxamide] | 3.4 µM | 68%
9 | Cc1cc(C(=O)NC2CCCC2)n(Cc2csc(N3CCCCC3)n2)c1 [Compound A-25, N-cyclopentyl-4-methyl-1-((2-(piperidin-1-yl)thiazol-4-yl)methyl)-1H-pyrrole-2-carboxamide] | 5.7 µM | –
10 | Cc1cc(C(=O)Nc2ccc(C(=O)O)cc2C)n(Cc2csc(N3CCCCC3)n2)c1 [Compound A-54, 3-Methyl-4-(4-methyl-1-((2-(piperidin-1-yl)thiazol-4-yl)methyl)-1H-pyrrole-2-carboxamido)benzoic acid] | > 100 µM | –
11 | Cc1cc(C(=O)Nc2ccc3c(c2)CC(=O)N3)n(Cc2csc(N3CCCCC3)n2)c1 [Compound A-41, 4-methyl-N-(2-oxoindolin-5-yl)-1-((2-(piperidin-1-yl)thiazol-4-yl)methyl)-1H-pyrrole-2-carboxamide] | 4.2 µM | –
12 | Cc1ccc(C(=O)Nc2ccccc2)n1Cc1csc(N2CCCCC2)n1 [Compound A-39, 5-methyl-N-phenyl-1-((2-(piperidin-1-yl)thiazol-4-yl)methyl)-1H-pyrrole-2-carboxamide] | 36 µM | 26%
13 | Cc1cc(C(=O)Nc2ccc(C(=O)O)cc2)n(Cc2csc(N3CCCC(C)C3)n2)c1 (centres unmarked) [Compound A-19, 4-(4-methyl-1-((2-(3-methylpiperidin-1-yl)thiazol-4-yl)methyl)-1H-pyrrole-2-carboxamido)benzoic Acid] | 2.7 µM | –
14 | Cc1cc(C(=O)Nc2ccc(-c3nn[nH]n3)cc2)n(Cc2cccc(N3CCCCC3)n2)c1 [Compound A-67, N-(4-(1H-tetrazol-5-yl)phenyl)-4-methyl-1-((6-(piperidin-1-yl)pyridin-2-yl)methyl)-1H-pyrrole-2-carboxamide] | 2.1 µM | –
15 | Cc1cc(C(=O)N(C)c2ccccc2)n(Cc2csc(N3CCCCC3)n2)c1 [Compound A-28, N,4-dimethyl-N-phenyl-1-((2-(piperidin-1-yl)thiazol-4-yl)methyl)-1H-pyrrole-2-carboxamide] | > 100 µM | –
16 | Cc1cc(C(=O)Nc2ccc3ccccc3c2)n(Cc2csc(N3CCCCC3)n2)c1 [Compound A-23, 4-methyl-N-(naphthalen-2-yl)-1-((2-(piperidin-1-yl)thiazol-4-yl)methyl)-1H-pyrrole-2-carboxamide] | 1.6 µM | –
17 | Cc1cc(C(=O)Nc2ccc(-c3c(C)noc3C)cc2)n(Cc2csc(N3CCCCC3)n2)c1 [Compound A-36, N-(4-(3,5-dimethylisoxazol-4-yl)phenyl)-4-methyl-1-((2-(piperidin-1-yl)thiazol-4-yl)methyl)-1H-pyrrole-2-carboxamide] | 1.4 µM | –

The next lines start with results.

Row | IC50 | Compound | max % inh
18 | 5 µM | CC(=O)NS(=O)(=O)c1ccc(NC(=O)c2cc(C)cn2Cc2csc(N3CCCCC3)n2)cc1 [Compound A-6, N-(4-(N-acetylsulfamoyl)phenyl)-4-methyl-1-((2-(piperidin-1-yl)thiazol-4-yl)methyl)-1H-pyrrole-2-carboxamide] | 71%
19 | 1.2 µM | Cc1cc(C(=O)Nc2ccc(-c3cn[nH]c3)cc2)n(Cc2csc(N3CCCCC3)n2)c1 [Compound A-37, N-(4-(1H-pyrazol-4-yl)phenyl)-4-methyl-1-((2-(piperidin-1-yl)thiazol-4-yl)methyl)-1H-pyrrole-2-carboxamide] | –
20 | 2.3 µM | O=C(O)c1ccc(NC(=O)c2cc(Cl)cn2Cc2csc(N3CCCCC3)n2)cc1 [Compound A-70, 4-(4-chloro-1-((2-(piperidin-1-yl)thiazol-4-yl)methyl)-1H-pyrrole-2-carboxamido)benzoic Acid] | –
21 | 0.91 µM | Cc1cc(C(=O)Nc2ccc(-c3nn[nH]n3)cc2)n(Cc2csc(N3CCCCC3)n2)c1 [Compound A-7, N-(4-(1H-tetrazol-5-yl)phenyl)-4-methyl-1-((2-(piperidin-1-yl)thiazol-4-yl)methyl)-1H-pyrrole-2-carboxamide] | –
22 | 3.4 µM | Cc1cc(C(=O)Nc2ccc(C(=O)O)cc2)n(Cc2csc(N3CCCCCC3)n2)c1 [Compound A-18, 4-(1-((2-(azepan-1-yl)thiazol-4-yl)methyl)-4-methyl-1H-pyrrole-2-carboxamido)benzoic Acid] | –
23 | 9.6 µM | Cc1cc(C(=O)NC2CCCOC2)n(Cc2csc(N3CCCCC3)n2)c1 (centres unmarked) [Compound A-27, 4-methyl-1-((2-(piperidin-1-yl)thiazol-4-yl)methyl)-N-(tetrahydro-2H-pyran-3-yl)-1H-pyrrole-2-carboxamide] | –
24 | 9 µM | Cc1cc(C(=O)NC2COc3ccccc3C2)n(Cc2csc(N3CCCCC3)n2)c1 (centres unmarked) [Compound A-34, N-(chroman-3-yl)-4-methyl-1-((2-(piperidin-1-yl)thiazol-4-yl)methyl)-1H-pyrrole-2-carboxamide] | –
25 | 11.7 µM | Cc1cc(Cn2cc(C)cc2C(=O)Nc2ccc(C(=O)O)cc2)nc(N2CCCCC2)c1 [Compound A-69, 4-(4-methyl-1-((4-methyl-6-(piperidin-1-yl)pyridin-2-yl)methyl)-1H-pyrrole-2-carboxamido)benzoic Acid] | –
26 | 3.8 µM | Cc1cc(C(=O)Nc2ccc(C(=O)O)cc2)n(Cc2csc(-c3ccccc3)n2)c1 [Compound A-17, 4-(4-methyl-1-((2-phenylthiazol-4-yl)methyl)-1H-pyrrole-2-carboxamido)benzoic Acid] | –
27 | 7.6 µM | Cc1cc(C(=O)Nc2cccnc2)n(Cc2csc(N3CCCCC3)n2)c1 [Compound A-31, 4-methyl-1-((2-(piperidin-1-yl)thiazol-4-yl)methyl)-N-(pyridin-3-yl)-1H-pyrrole-2-carboxamide] | –
28 | 1.2 µM | Cc1cc(C(=O)Nc2ccc(-c3cccnc3)cc2)n(Cc2csc(N3CCCCC3)n2)c1 [Compound A-35, 4-methyl-1-((2-(piperidin-1-yl)thiazol-4-yl)methyl)-N-(4-(pyridin-3-yl)phenyl)-1H-pyrrole-2-carboxamide] | –
29 | 6.4 µM | Cc1cc(C(=O)NCc2ccc(C(=O)O)cc2)n(Cc2csc(N3CCCCC3)n2)c1 [Compound A-1, 4-((4-methyl-1-((2-(piperidin-1-yl)thiazol-4-yl)methyl)-1H-pyrrole-2-carboxamido)methyl)benzoic Acid] | –
30 | 2.8 µM | Cc1cc(C(=O)Nc2ccc(C(=O)O)c(F)c2)n(Cc2csc(N3CCCCC3)n2)c1 [Compound A-57, 2-fluoro-4-(4-methyl-1-((2-(piperidin-1-yl)thiazol-4-yl)methyl)-1H-pyrrole-2-carboxamido)benzoic Acid] | –
31 | 2.5 µM | Cc1cc(C(=O)Nc2ccc(C(=O)O)c(C)c2)n(Cc2csc(N3CCCCC3)n2)c1 [Compound A-61, 2-methyl-4-(4-methyl-1-((2-(piperidin-1-yl)thiazol-4-yl)methyl)-1H-pyrrole-2-carboxamido)benzoic Acid] | –
32 | > 100 µM | CC(=O)c1cc(C(=O)Nc2ccc(C(=O)O)cc2)n(Cc2csc(N3CCCCC3)n2)c1 [Compound A-56, 4-(4-acetyl-1-((2-(piperidin-1-yl)thiazol-4-yl)methyl)-1H-pyrrole-2-carboxamido)benzoic Acid] | –
33 | 14.4 µM | Cc1cc(C(=O)NC2CCOCC2)n(Cc2csc(N3CCCCC3)n2)c1 [Compound A-29, 4-methyl-1-((2-(piperidin-1-yl)thiazol-4-yl)methyl)-N-(tetrahydro-2H-pyran-4-yl)-1H-pyrrole-2-carboxamide] | –

From patent US11168080B2, “Dynamin-1-like protein inhibitors” (Mitobridge, Inc., priority 2017, dated 2021)
